The values below come from patent US10300052B2, “Methods for increasing CFTR activity” (THE UAB RESEARCH FOUNDATION, priority 2012, dated 2019).

One assay has as its target T1, WT-CFTR (Homo sapiens, UniProt P13569).
T1 construct: expressed in transfected cells
In words: Short-circuit current (Isc) in Ussing chambers, CFBE41o- cells with stable WT-CFTR expression. To be noted: ivacaftor 10 μM after amiloride 100 μM and forskolin 100 nM, Cl- secretory gradient; CFBE41o- with stable WT-CFTR (FIG. 1A). It is filed as cell-based. As to the method: CFBE41o-cells complemented by stable expression of WT-CFTR (by a lentivirus promoter) are shown in comparison to CFBE41o-cells without WT CFTR complementation (parental cells). *P<0.05, **P<0.005, n=5/condition.
The CFTR potentiator ivacaftor was chosen as an exemplary CFTR activator. The activity of ivacaftor was examined in WT-CFTR expressing cells.
Short-circuit current (Isc) was measured under voltage clamp conditions using MC8 voltage clamps and P2300 Ussing chambers (Physiologic Instruments, San Diego, Calif.) as previously described (2). Monolayers were initially bathed on both sides with identical Ringer's solutions containing (in mM) 115 NaCl, 25 NaHCO3, 2.4 KH2PO4, 1.24 K2HPO4, 1.2 CaCl2, 1.2 MgC2, 10 D-glucose (pH 7.4). Bath solutions were vigorously stirred and gassed with 95%02:5% CO2. Short-circuit current measurements were obtained using an epithelial voltage clamp (Physiologic Instruments). A one-second three-mV pulse was imposed every 10 seconds to monitor resistance calculated using Ohm's law. Where indicated, the mucosal bathing solution was changed to a low Cl-solution containing 1.2 NaCl and 115 Na+ gluconate, and all other components as above. Amiloride (100 μM) was added to block residual Na+ current, followed by the agonists forskolin, ivacaftor, and ATP as indicated (minimum five-min observation at each concentration). […]

A further assay relates to HBE cells. The experiment in a line: Mucus transport studies (fluorescent beads) in HBE cells. It counts as cell-based, human. The note with it: ivacaftor 10 μM basolateral, co-stimulated with VIP 30 nM, vs control (FIG. 2C). The method, then: HBE cells were washed with sterile PBS twice 1-2 days prior to addition of PEG beads. Fifty (50) μl of Diamine polyethylene glycol (PEG) coated fluorescent beads (1 μm, Molecular Probes, Eugene, Oreg., 1:500 dilution in PBS) were added to the apical surface by using a microsprayer aerosolizer (Penn-Century Inc Model IA-1B, Wyndmoor, Pa.). Following 24 h incubation, baseline images were obtained and then test compounds added to the basolateral compartment. Mucociliary transport (MCT) images were captured by time-lapse fluorescence imaging at four regions of interest per well located 1 mm from the periphery of the well and at each quadrant using an inverted epifluorescence microscope (Nikon Diaphot, Melvin, N.Y.; 488 nm excitation/519 nm emission). Linear transport rates were computed using Metamoph 7.0 by analyzing 10-15 particles per region (7).

For a further assay, the system named is porcine trachea CFTR+/+. The experiment in a line: μOCT imaging of airway epithelial function in porcine trachea, CFTR+/+ animals. To be noted: ivacaftor 10 μM in bath, 37° C. (FIG. 7H). The text has this: FIGS. 7A-7H show the effects of CFTR activators on airway epithelial function in intact porcine trachea by μOCT. FIGS. 7A-7B show representative μOCT images for a CFTR−/− (FIG. 7A) and CFTR+/+ (FIG. 7B) animal. FIGS. 7C-7F, respectively, show ASL depth (FIG. 7C), PCL depth (FIG. 7D), CBF (FIG. 7E) and MCT (FIG. 7F) measurements derived from μOCT images from CFTR−/− and CFTR+/+ animals. FIGS. 7G and 7H show the response of epithelial functional parameters, namely ASL depth and MCT in CFTR−/− (FIG. 7G) and CFTR+/+(FIG. 7H) animals in response to sequential pharmacologic intervention by ivacaftor (10 μM), forskolin (100 nM) and acetylcholine (100 μM).
To further investigate the role of CFTR activators in modulating airway epithelial cell function, CFTR activators were studied in combination with porcine trachea. In this example, porcine trachea from animals having a mutated CFTR (CFTR (−/−) and from animals having a WT-CFTR (CFTR+/+) were evaluated for ASL depth, PCL depth, CBF and MCT. The results are shown in FIGS. 7A-7H.
FIGS. 7G and 7H show the response of epithelial functional parameters, namely ASL depth, CBF and MCT in CFTR−/− and CFTR+/+ animals in response to sequential pharmacologic intervention by ivacaftor (10 μM), forskolin (100 nM) and acetylcholine (100 μM); in this experiment, acetylcholine served as a positive control to induce glandular extrusion in CF tissue). In these experiments, agonists were added to the bath solution and all experiments were conducted under physiological conditions (37° C. and 100% humidity). […] In contrast to FIG. 7G, ASL depth, CBF and MCT were all increased in response to ivacaftor treatment in CFTR+/+ animals, consistent with the results described above for human tissue.
Normal piglet tracheas were obtained from Exemplar Genetics (Sioux Center, Iowa). Tissue were dissected from one-day-old piglets and shipped on wet ice in DMEM. A modified protocol based on airway tissue handling and preparation methods developed by Ballard et al. (Am J Physiol Lung Cell Mol Physiol 298: L270-276, 2010) was employed. […]

The target in a further assay is G551D-CFTR (Homo sapiens, UniProt P13569, G551D). To be noted: in vitro and in CF subjects harboring the G551D-CFTR defect; reported; cited from earlier work.
Chain of G551D-CFTR (P13569 whole entry G551D): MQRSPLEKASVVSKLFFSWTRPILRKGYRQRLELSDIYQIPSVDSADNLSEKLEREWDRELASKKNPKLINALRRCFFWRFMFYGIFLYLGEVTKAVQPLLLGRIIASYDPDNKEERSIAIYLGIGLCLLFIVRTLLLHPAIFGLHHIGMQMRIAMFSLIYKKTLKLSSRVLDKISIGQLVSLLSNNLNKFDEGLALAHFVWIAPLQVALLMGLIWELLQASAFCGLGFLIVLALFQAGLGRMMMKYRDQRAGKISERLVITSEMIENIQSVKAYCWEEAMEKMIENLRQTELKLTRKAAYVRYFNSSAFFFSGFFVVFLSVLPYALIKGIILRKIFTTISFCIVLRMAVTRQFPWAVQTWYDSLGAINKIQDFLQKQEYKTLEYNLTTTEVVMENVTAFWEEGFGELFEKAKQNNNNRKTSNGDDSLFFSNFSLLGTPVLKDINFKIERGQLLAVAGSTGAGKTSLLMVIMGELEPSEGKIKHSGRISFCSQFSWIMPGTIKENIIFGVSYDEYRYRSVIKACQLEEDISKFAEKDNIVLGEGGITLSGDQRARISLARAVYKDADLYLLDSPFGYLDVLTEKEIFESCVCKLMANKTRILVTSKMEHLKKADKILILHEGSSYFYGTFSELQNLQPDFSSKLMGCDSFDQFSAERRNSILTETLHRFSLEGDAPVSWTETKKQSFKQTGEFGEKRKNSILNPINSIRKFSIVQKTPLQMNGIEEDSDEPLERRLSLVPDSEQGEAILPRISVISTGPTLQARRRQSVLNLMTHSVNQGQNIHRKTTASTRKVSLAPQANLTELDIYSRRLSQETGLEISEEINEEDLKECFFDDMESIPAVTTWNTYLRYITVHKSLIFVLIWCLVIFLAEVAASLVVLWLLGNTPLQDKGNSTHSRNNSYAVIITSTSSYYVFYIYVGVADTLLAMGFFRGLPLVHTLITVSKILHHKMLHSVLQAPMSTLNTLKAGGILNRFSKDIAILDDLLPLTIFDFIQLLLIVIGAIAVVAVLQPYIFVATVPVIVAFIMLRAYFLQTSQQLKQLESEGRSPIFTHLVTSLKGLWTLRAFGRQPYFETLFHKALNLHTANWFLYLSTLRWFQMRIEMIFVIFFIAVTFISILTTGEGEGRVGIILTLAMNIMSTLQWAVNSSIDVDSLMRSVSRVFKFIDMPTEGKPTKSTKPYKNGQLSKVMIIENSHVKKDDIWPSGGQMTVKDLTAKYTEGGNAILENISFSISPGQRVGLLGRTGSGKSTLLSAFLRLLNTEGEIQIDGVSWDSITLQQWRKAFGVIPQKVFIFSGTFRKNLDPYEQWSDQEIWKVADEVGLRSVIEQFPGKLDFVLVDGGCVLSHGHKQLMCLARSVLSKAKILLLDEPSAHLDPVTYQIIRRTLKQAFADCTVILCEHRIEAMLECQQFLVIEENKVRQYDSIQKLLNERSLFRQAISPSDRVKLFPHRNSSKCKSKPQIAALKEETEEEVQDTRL

T1 sequence (P13569 whole entry): as the sequence (P13569 whole entry G551D) above, with D551G counted along it

With `CC(C)(C)c1cc(C(C)(C)C)c(NC(=O)c2c[nH]c3ccccc3c2=O)cc1O` [ivacaftor], the “anion transport (Isc)” value on WT-CFTR is reported as “robust increases”. For the same compound, the “mucus transport (MCT)” value in the assay with HBE cells is “markedly increased above baseline”. Moreover, in the assay on porcine trachea CFTR+/+, the ASL depth response entry is on record as “increased”, the CBF response result is listed as “increased” and the MCT response entry is “increased”. For the same compound, on G551D-CFTR, the “cAMP mediated ion transport activity of CFTR encoding the gating mutation G551D-CFTR” value was “significantly augment”.
